For series [1], the system named is A549 human non-small-cell lung carcinoma. Nature of the series: MTT cytotoxicity assay, A549. Particulars: Homo sapiens, A549, 72 h, A549, 72 h incubation, MTT, n = 3 (Table 3). In kind it is cell-based. An excerpt: (§1) The cytotoxicity of the test compounds was studied using the MTT assay against a number of cell lines: CT-26 murine colon carcinoma, 4T1 murine mammary carcinoma, MDA-MB-231 human breast adenocarcinoma, COLO201 human colorectal adenocarcinoma, HepG2 human hepatocellular carcinoma, A549 human non-small-cell lung carcinoma, SK-BR-3 human breast adenocarcinoma, SNU-1 human gastric carcinoma, Jurkat human acute T-lymphoblastic leukemia, and WI-38 human lung fibroblasts (normal cells). Doxorubicin (Dox) was used as a reference drug. Cells were incubated with test compounds for 72 h.
(§2) Cells were seeded in flat-bottomed 96-well plates at 10,000 cells per well (for A549, SNU-1, WI-38, CT-26, MDA-MB-231, 4T1, and HepG2 cells) or 20,000 cells per well (for SK-BR-3, Jurkat, and COLO201 cells) and cultivated in complete culture mediums (for composition of each medium, see the Supplementary Materials, Table S1) in a CO2 incubator at 37 °C. At the first stage of this study, the test compounds dissolved in DMSO were added to the wells with cells at final concentrations from 1 × 10^–4 to 1 × 10^–10 mol/L (A549, SK-BR-3, SNU-1, Jurkat, and WI-38) or 1 × 10^–3 to 1 × 10^–8 mol/L (CT-26, MDA-MB-231, 4T1, COLO201, and HepG2); DMSO concentration in the wells was finally 1%. A complete cultural medium and DMSO were added to the control wells at the same concentration as in the experimental wells; 0.1% Triton X-100 solution (10 µL) was added to the corresponding wells as a non-specific positive control. After adding the test compounds, the cells were incubated for 72 h in an atmosphere containing 5% CO2. After that, the nutrient medium was removed from each well (in the case of SK-BR-3, Jurkat, and COLO201, plates were pre-centrifuged at 1500 rpm for 6 min). A solution of the commercial anticancer agent Doxorubicin (Dox, Sigma-Aldrich, St. Louis, MO, USA) in DMSO was used as a reference drug. Then, 150 µL of a complete medium with the MTT reagent (PanEco, Moscow, Russia) at a concentration of 0.5 mg/mL was added and incubated for 2 h. Formazan crystals were dissolved in DMSO (200 µL) and the absorbance in the wells was measured at 540 nm and a reference wavelength of 650 nm (Sunrise, Tecan, Groding, Austria). Experiments were performed in three parallel runs. Cell viability after incubation in the presence of test compounds was calculated in relation to cell viability in the control wells according to the Formula (1):Cell viability (%) = (Aexp/Ac) × 100,(1) where Aexp is the optical density of solutions in the wells containing test compounds; Ac is the optical density of solutions in control wells without test compounds. For detailed information on cell viability of various cell lines, see the Supplementary Materials, Figures S21–S26.
(§3) At the second stage of this study, in order to more accurately calculate the CC50 (the half maximal inhibitory concentration), the cytotoxic effect of test compounds was evaluated at concentrations close to CC50 found at the first stage. The study of the cytotoxic activity of each substance towards the cells of each line was carried out in triplicate; the mean value was used to calculate CC50. The CC50 values were determined by non-linear regression analysis using Graph-Pad Prism7.
(In general: Formazan colour is commonly taken as a measure of viable cells.)

Series [2] is described as follows: MTT cytotoxicity assay, WI-38 normal cells. In kind it is cell-based. The settings on record: human, WI-38 lung fibroblasts (normal cells), WI-38, 72 h incubation, MTT, n = 3 (Table 3).
Excerpt: as §1, §2, §3

For series [3], the system named is A549, SK-BR-3, SNU-1, Jurkat, WI-38 cell lines. Nature of the series: MTT cytotoxicity assay, cell line panel (result in words). It counts as cell-based, human. Particulars: 72 h.
Excerpt: as §1
The cytotoxicity of compounds 2a–c, 6, 7, and 9 was also studied using the MTT assay against a number of tumor cell lines: A549, SK-BR-3, SNU-1, Jurkat, as well as normal fibroblasts WI-38 (Table 3).
as §2, §3

Series [4] deals with Jurkat human acute T-lymphoblastic leukemia. Nature of the series: MTT cytotoxicity assay, Jurkat. In kind it is cell-based. Particulars: Homo sapiens, Jurkat, 72 h, 72 h incubation, MTT, n = 3 (Table 3).
Excerpt: as §1, §2, §3

Series [5] relates to SNU-1 human gastric carcinoma. Briefly: MTT cytotoxicity assay, SNU-1. It counts as cell-based. Particulars: Homo sapiens, SNU1, 72 h, SNU-1, 72 h incubation, MTT, n = 3 (Table 3).
Excerpt: as §1, §2, §3

The subject of series [6] is SK-BR-3 human breast adenocarcinoma. Nature of the series: MTT cytotoxicity assay, SK-BR-3. It counts as cell-based. Particulars: Homo sapiens, SK-BR-3, 72 h, SK-BR-3, 72 h incubation, MTT, n = 3 (Table 3).
Excerpt: as §1, §2, §3

A short description of series [7]: MTT cytotoxicity assay, Jurkat. It counts as cell-based, human. Particulars: human, CC50 of WI-38 divided by CC50 of Jurkat (Table 3); read-out: SCI (selective cytotoxicity index).
Excerpt: as §1, §2, §3

A short description of series [8]: MTT cytotoxicity assay, A549. In kind it is cell-based, human. Particulars: human, CC50 of WI-38 divided by CC50 of A549 (Table 3); read-out: SCI (selective cytotoxicity index).
Excerpt: as §1, §2, §3

Series [9] can be described thus: MTT cytotoxicity assay, SNU-1. In kind it is cell-based, human. The settings on record: human, CC50 of WI-38 divided by CC50 of SNU-1 (Table 3); read-out: SCI (selective cytotoxicity index).
Excerpt: as §1, §2, §3

Series [10] can be described thus: MTT cytotoxicity assay, SK-BR-3. In kind it is cell-based, human. Particulars: human, CC50 of WI-38 divided by CC50 of SK-BR-3 (Table 3); read-out: SCI (selective cytotoxicity index).
Excerpt: as §1, §2, §3

Here are results for ten compounds from paper PMC9962735, “Synthesis and Cytotoxic Activity of the Derivatives of N-(Purin-6-yl)aminopolymethylene Carboxylic Acids and Related Compounds” (Molecules, 2023).

As usually defined, the melting point is the temperature, or range, at which the solid turns liquid. Turning to `C[C@H]1COc2c(ccc(F)c2F)N1C(=O)CCCCCCCCC(=O)N1c2ccc(F)c(F)c2OC[C@@H]1C` (hydrate or solvate) [(S)-9, 1,10-bis((S)-7,8-Difluoro-3-methyl-2H-benzo[b][1,4]oxazin-4(3H)-yl)decan-1,10-dione], the melting point fell in the range of 41 to 42 °C.

`CC1COc2c(ccc(F)c2F)N1C(=O)CCCCCCCCC(=O)N1c2ccc(F)c(F)c2OCC1C` (stereo not drawn) (hydrate or solvate) [Compound 9, 1,10-bis(-7,8-Difluoro-3-methyl-2H-benzo[b][1,4]oxazin-4(3H)-yl)decan-1,10-dione] returned a melting point of 103 to 104 °C.

The CC50 is the concentration giving 50% cytotoxicity. A high value points to better tolerance by the cells. Regarding `C[C@H]1COc2c(ccc(F)c2F)N1C(=O)CCCCCCCCC(=O)N1c2ccc(F)c(F)c2OC[C@@H]1C` [(S)-9, 1,10-bis((S)-7,8-Difluoro-3-methyl-2H-benzo[b][1,4]oxazin-4(3H)-yl)decan-1,10-dione], the half-maximal cytotoxic concentration (CC50) in series [1], in [4], in series [5] and in [6] was above 100 µM in each case. Besides, the 50% cytotoxic concentration (CC50) at 72 h in series [2] is above 100 µM. In addition, the “cytotoxic activity (in words)” value in [3] is recorded as “did not exhibit cytotoxic activity”.

As to `CC1COc2c(ccc(F)c2F)N1C(=O)CNc1ncnc2[nH]cnc12` (stereo not drawn) [Compound 1a], the CC50 in series [1], in [4], in series [5] and in series [6] was above 100 µM throughout. The compound further yielded a CC50 at 72 h in [2] above 100 µM. Also, the “cytotoxic activity (in words)” value in [3] was “non-cytotoxic”.

The compound `O=C(O)CCCCCCCCCCNc1ncnc2nc[nH]c12` [Compound 2a, N-(Purin-6-yl)-11-aminoundecanoic Acid] yielded a melting point of 172 to 174 °C. For the same compound, the CC50 in series [1] was above 100 µM. Besides, the CC50 at 72 h in series [2] is above 100 µM. Moreover, the “cytotoxic activity (in words)” value in series [3] is “cytotoxic only against the Jurkat cell line”. For the same compound, the selectivity ratio at 72 h in series [7] is at least 1.7. This compound also had a 50% cytotoxic concentration (CC50) in series [4] of 59 µM. The compound also showed a CC50 in series [5] above 100 µM. This compound had a CC50 in series [6] above 100 µM.

In the case of `O=C(O)CCCCCCCCCCCNc1ncnc2nc[nH]c12` [Compound 2b, N-(Purin-6-yl)-12-aminododecanoic Acid], the 50% cytotoxic concentration (CC50) in [1] is above 100 µM; in [4] it was 49 µM; in series [5] it was above 100 µM; in series [6] it was above 100 µM. The CC50 at 72 h in [2] was above 100 µM. Moreover, the “cytotoxic activity (in words)” value in series [3] is given as “cytotoxic only against the Jurkat cell line”.

Compound `O=C(O)CCCCCCCCCCCCCCNc1ncnc2nc[nH]c12` [Compound 2c, N-(Purin-6-yl)-15-aminopentadecanoic Acid] displayed a melting point of 198 to 199 °C. In series [1], the cytotoxic concentration (CC50) is above 100 µM. The compound further showed a cytotoxic concentration (CC50) at 72 h in series [2] above 100 µM. The “cytotoxic activity (in words)” value in series [3] was “no cytotoxic activity”. The CC50 in [4] was above 100 µM. Besides, the CC50 in [5] is above 100 µM. This compound gave a CC50 in series [6] above 100 µM.

Take `CC(=O)OCCOCn1cnc2c(NCCCCCCCCCCC(=O)N3c4ccc(F)c(F)c4OCC3C)ncnc21` (stereo not drawn) [Compound 6, {11-[9-(2-Acetoxyethoxy)methylpurin-6-yl]aminoundecanoyl]-7,8-difluoro-3,4-dihydro-3-methyl-2H-[1,4]benzoxazine]: the selectivity ratio at 72 h was 2 in series [8], 3 in series [7], 5.4 in series [9] and 0.08 in series [10]. The CC50 in [1] is 15 µM; in series [4] it was 10 µM; in series [5], 5.6 µM; in [6], 370 µM. In series [2], this compound registered a half-maximal cytotoxic concentration (CC50) at 72 h of 30 µM. In [3], the “cytotoxic activity (in words)” value is given as “approximately the same cytotoxicity as the most active compound 1d”.

`CC1COc2c(ccc(F)c2F)N1C(=O)CCCCCCCCC(=O)N1c2ccc(F)c(F)c2OCC1C` (stereo not drawn) [Compound 9, 1,10-bis(-7,8-Difluoro-3-methyl-2H-benzo[b][1,4]oxazin-4(3H)-yl)decan-1,10-dione]: the 50% cytotoxic concentration (CC50) in series [1], in [4], in series [5] and in series [6] was above 100 µM throughout. In [2], this compound yielded a CC50 at 72 h above 100 µM. Further, the “cytotoxic activity (in words)” value in series [3] is on record as “did not exhibit cytotoxic activity”.

In the case of `COc1cccc2c1C(=O)c1c(O)c3c(c(O)c1C2=O)C[C@@](O)(C(=O)CO)C[C@@H]3O[C@H]1C[C@H](N)[C@H](O)[C@H](C)O1` [Dox, Doxorubicin, reference compound], the selectivity ratio at 72 h in series [8] was 1; in series [7], 1.9; in series [9], 1.6; in series [10] it was 0.15. Besides, the CC50 in [1] came to 0.22 µM; in series [4], 0.12 µM; in series [5], 0.14 µM; in series [6], 1.5 µM. In series [2], the CC50 at 72 h stood at 0.23 µM.
